Data reported in patent US9353067B2, “Heterocyclic compounds and uses thereof in the treatment of sexual disorders” (ATIR Holding S.A., priority 2011, dated 2016).
Several values for one entry are separate records, joined by “and”; a condition that tells them apart may be missing. Identical values can stand only once. Like-named read-outs stand apart in the source and are kept apart here.

Assays:
[1] = Pharmacokinetics of R-55 following intravenous administration in pigs; assay type: in vivo, White Landrace female pigs; details: 0.2 mg/kg intravenous
Protocol: R-55 and related compounds were assayed in the plasma samples using a Waters (USA) Alliance high performance liquid chromatograph coupled with a Waters Micromass ZQ quadruple mass spectrometer (in ESI+ mode) as a detector with Waters Empower chromatographic and mass spectrometric software for chromatographic data acquisition, processing and instrument control.
The tested compound was extracted from plasma using dichloromethane, followed by concentration by evaporating the extract and dissolution in a low volume chromatographic mobile phase.
The instrument was calibrated using plasma spiked with various concentrations of the tested compound. Enrofloxacin (m/z=360.4) was used as an internal standard.
In order to investigate the pharmacokinetics of R-55, the presence of R-55 in plasma was measured following intravenous administration of R-55 in pigs.
White Landrace female pigs were acclimatized for 2days prior to treatment. 3 pigs were administered 0.2 mg/kg R-55 by intravenous injection at a dose volume of 0.2 ml/kg. Blood samples were withdrawn from each pig via a jugular vein catheter at the following time points: immediately prior to injection (t=0), and 5 minutes, 10 minutes, 15 minutes, 30 minutes, 45 minutes, 60 minutes, 90 minutes, 2 hours, 3 hours, 4 hours, and 6 hours post-injection. All samples were collected in a K3EDTA tube (Greiner). Blood samples were stored on crushed ice after collection. Plasma was separated by centrifugation (10 minutes at 3000 rotations per minute), within two hours post-sampling. Each plasma sample was divided into two aliquots before freezing. Plasma samples were then stored at −20° C. until being dispatched for LCMS analysis.
Clinical observations were performed during the six hours following application.
Pharmacokinetic analysis was performed using the WINNONLIN version 5.0 (Pharsight, USA) computerized software. Area under curves of concentration vs. time (AUC) were calculated using the log linear trapezoidal rule. Area under curves were determined for the time period for which concentrations were measured, i.e., t=0 to 6 hours (AUCall), and for an infinite time period (AUCINF), as determined by extrapolation of the curve to t=∞.

[2] = system: Adrenergic α1 receptor; assay: Competitive binding, prazosin radioligand; design: species or system Wistar rat
Protocol: (§1) R-55 (which comprises a 3-hydroxyphenyl moiety) and the structurally related compounds N-108 (2-{[4-(2-ethoxyphenyl)piperazin-1-yl]methyl}quinazolin-4(3H)-one) and B-39 (7-chloro-2-((5,6-dihydro-4-(2-methoxyphenyl)pyridin-1(2H)-yl)methyl)quinazolin-4(3H)-one) were assayed for competitive binding to a variety of receptors, including D4.4 type dopamine receptor, in order to assess their specificity for D4.4 dopamine receptors.
(§2) The receptors were expressed as human recombinant proteins in CHO cells, except for adrenergic α1 and α2 receptors which were expressed in Wistar rat brain and cerebral cortex cells, respectively, and melanocortin MC4 receptor which was expressed in human recombinant HEK-293 cells. Binding was determined using the following radioligands in the presence of various concentrations of the tested compound:
0.25 nM prazosin for adrenergic α1 receptor,
(§3) The binding assays were performed in accordance with procedures described in the literature (Greengrass & Bremner, 1979; Boyajian & Leslie, 1987; Broadhurst, 1988; Lewis, 2001; Sutton, 1995; Dearry, 1990; Zhou, 1990; Grandy, 1989; Hayes, 1992; Sokoloff, 1990; Van Tol, 1991; Van Tol 1992; Sunahara, 1991; Weinshank, 1991; Schioth, 1996; Schioth 1997; Martin & Humphrey, 1994; May, 2003; Wolf & Schutz, 1997).

[3] = system: Adrenergic α2 receptor; assay: Competitive binding, rauwolscine radioligand; design: species or system Wistar rat
Protocol: as §1, §2
0.7 nM rauwolscine for adrenergic α2 receptor,
as §3

[4] = target: Dopamine D2S receptor (Homo sapiens (Human), UniProt P14416); assay: Competitive binding, spiperone radioligand
Protocol: as §1, §2
(§4) 0.16 nM, 0.7 nM and 1.2 nM spiperone, respectively, for dopamine D2S, D3 and D4.4 receptors,
as §3

[5] = target: Dopamine D3 receptor (Homo sapiens (Human), UniProt P35462); assay: Competitive binding, spiperone radioligand
Protocol: as §1, §2, §4, §3

[6] = target: Dopamine D4.4 receptor (Homo sapiens (Human), UniProt P21917); assay: Competitive binding, spiperone radioligand
Protocol: as §1, §2, §4, §3

[7] = target: Melanocortin MC4 receptor (Homo sapiens (Human), UniProt P32245); assay: Competitive binding, NDP-α-MSH radioligand
Protocol: as §1, §2
0.02 nM NDP-α-MSH for melanocortin MC4 receptor,
as §3

[8] = target: Serotonin 5-HT1A receptor (Homo sapiens (Human), UniProt P08908); assay: Competitive binding, 8-OH-DPAT radioligand
Protocol: as §1, §2
1.5 nM 8-OH-DPAT for serotonin 5-HT1A receptor, and
as §3

Dopamine D4.4 receptor, sequence (P21917 whole entry): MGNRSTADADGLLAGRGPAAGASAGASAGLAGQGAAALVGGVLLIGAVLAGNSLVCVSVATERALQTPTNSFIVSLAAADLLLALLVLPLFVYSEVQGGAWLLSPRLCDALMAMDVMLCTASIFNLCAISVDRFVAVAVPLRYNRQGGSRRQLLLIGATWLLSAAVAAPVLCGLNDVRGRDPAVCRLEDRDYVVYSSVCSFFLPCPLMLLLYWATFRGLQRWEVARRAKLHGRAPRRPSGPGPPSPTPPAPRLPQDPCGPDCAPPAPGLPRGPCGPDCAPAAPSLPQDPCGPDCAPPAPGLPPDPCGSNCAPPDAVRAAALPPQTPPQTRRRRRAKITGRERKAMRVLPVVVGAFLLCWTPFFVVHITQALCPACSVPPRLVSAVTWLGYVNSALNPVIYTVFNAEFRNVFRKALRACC
Serotonin 5-HT1A receptor, sequence (P08908 whole entry): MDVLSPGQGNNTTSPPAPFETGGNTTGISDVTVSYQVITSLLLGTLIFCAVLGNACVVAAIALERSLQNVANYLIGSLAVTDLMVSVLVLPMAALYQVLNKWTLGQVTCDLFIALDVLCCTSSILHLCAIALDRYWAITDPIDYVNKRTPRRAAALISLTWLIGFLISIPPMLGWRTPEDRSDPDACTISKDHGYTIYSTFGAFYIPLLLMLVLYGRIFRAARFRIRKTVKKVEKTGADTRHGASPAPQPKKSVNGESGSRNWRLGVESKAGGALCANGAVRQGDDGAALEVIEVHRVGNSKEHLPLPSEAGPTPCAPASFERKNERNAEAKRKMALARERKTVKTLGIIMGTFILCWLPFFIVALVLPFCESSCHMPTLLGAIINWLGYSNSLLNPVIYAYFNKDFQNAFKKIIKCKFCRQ
Dopamine D3 receptor, sequence (P35462 whole entry): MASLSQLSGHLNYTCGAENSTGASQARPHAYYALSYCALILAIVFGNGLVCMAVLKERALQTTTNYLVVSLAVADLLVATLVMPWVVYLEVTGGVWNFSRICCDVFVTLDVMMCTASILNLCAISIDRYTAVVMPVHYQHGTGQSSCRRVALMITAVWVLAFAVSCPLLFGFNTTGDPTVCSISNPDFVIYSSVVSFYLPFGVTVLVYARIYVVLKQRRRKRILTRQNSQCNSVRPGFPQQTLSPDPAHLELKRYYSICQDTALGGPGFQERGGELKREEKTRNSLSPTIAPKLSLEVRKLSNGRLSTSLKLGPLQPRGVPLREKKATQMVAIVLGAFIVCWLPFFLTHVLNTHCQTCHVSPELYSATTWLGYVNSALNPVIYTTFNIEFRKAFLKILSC
Melanocortin MC4 receptor, sequence (P32245 whole entry): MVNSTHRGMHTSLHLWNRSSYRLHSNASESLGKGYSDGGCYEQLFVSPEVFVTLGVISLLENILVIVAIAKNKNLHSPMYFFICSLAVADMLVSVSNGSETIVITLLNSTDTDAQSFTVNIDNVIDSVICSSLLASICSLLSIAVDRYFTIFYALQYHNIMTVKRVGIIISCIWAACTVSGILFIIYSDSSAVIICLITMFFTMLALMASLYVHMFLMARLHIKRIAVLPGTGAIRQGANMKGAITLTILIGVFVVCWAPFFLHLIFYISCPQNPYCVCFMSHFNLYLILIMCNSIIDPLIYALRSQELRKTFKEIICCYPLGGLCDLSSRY
Dopamine D2S receptor, sequence (P14416 other isoform, or with tags, fused parts or gaps): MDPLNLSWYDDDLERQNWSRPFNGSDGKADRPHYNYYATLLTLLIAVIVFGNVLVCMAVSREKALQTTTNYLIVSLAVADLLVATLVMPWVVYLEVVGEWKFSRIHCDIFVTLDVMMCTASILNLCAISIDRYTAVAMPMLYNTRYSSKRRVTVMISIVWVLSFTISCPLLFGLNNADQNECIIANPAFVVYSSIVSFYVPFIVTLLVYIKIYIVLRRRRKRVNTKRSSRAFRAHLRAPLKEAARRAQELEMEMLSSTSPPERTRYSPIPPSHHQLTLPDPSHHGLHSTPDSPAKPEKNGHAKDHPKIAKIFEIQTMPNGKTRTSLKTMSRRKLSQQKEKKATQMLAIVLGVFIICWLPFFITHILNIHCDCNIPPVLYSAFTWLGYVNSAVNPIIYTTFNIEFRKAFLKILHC

O=c1[nH]c(CN2CCN(c3cccc(O)c3)CC2)nc2ccccc12 [Compound R-55, 2-((4-(3-hydroxyphenyl)piperazin-1-yl)methyl)quinazolin-4-one]
Time to elimination from the bloodstream after administration [1]: ≤ 30 min
R-55 plasma concentration ([1]; 0 minutes (immediately prior to injection), individual animals #1-#3): 0 ng/mL
R-55 plasma concentration ([1]; 5 minutes after injection, individual animals #1-#3): 122.1 ng/mL and 142.2 ng/mL
R-55 plasma concentration ([1]; 10 minutes after injection, individual animals #1-#3): 112.9 ng/mL and 83.0 ng/mL
R-55 plasma concentration ([1]; 15 minutes after injection, individual animals #1-#3): 30.4 ng/mL and 76.8 ng/mL and 52.8 ng/mL
R-55 plasma concentration ([1]; 30 minutes after injection, individual animals #1-#3): 0 ng/mL and 24.9 ng/mL and 22.3 ng/mL
R-55 detection in plasma ([1]; 45 minutes or more following administration): No R-55 was detected
AUCINF ([1]; extrapolation to infinite time, individual animals): 2501.3 ng·min/mL and 2132.2 ng·min/mL
Clearance ([1]; individual animals): 80.0 mL/min/kg and 93.8 mL/min/kg
Cmax - maximal concentration ([1]; individual animals): 122.1 ng/mL and 142.2 ng/mL
Mean residence time ([1]; individual animals): 17.0 min and 15.8 min
T1/2 - half-life ([1]; individual animals): 8.67 min and 10.34 min and 9.67 min
Volume of distribution ([1]; individual animals): 1.193 L/kg and 1.3081 L/kg
Volume of distribution at steady state ([1]; individual animals): 1.3589 L/kg and 1.5093 L/kg
Clinical observations (side effects) ([1]; six hours following application): No abnormal side effects were observed
AUCall ([1]; t=0 to 6 hours, individual animals): 2129.0 ng·min/mL and 1821.3 ng·min/mL
concentration at 0 min ([1]; female, White Landrace, pig, plasma, iv, 0.2 mg/kg, 0 minutes (immediately prior to injection), individual animals #1-#3): 0 ng/mL
concentration at 5 min ([1]; female, White Landrace, pig, plasma, iv, 0.2 mg/kg, 5 minutes after injection, individual animals #1-#3): 158 ng/mL
concentration at 10 min ([1]; female, White Landrace, pig, plasma, iv, 0.2 mg/kg, 10 minutes after injection, individual animals #1-#3): 86.7 ng/mL
AUC(0-inf) ([1]; female, White Landrace, pig, plasma, iv, 0.2 mg/kg, extrapolation to infinite time, individual animals): 32.1 ng·h/mL
Clearance ([1]; female, White Landrace, pig, plasma, iv, 0.2 mg/kg, individual animals, read-out: Clearance): 104 mL/min/kg
Cmax ([1]; female, White Landrace, pig, plasma, iv, 0.2 mg/kg, individual animals, read-out: Cmax - maximal concentration): 158 ng/mL
MRT ([1]; female, White Landrace, pig, plasma, iv, 0.2 mg/kg, individual animals, read-out: Mean residence time (converted)): 14.5 min
half-life ([1]; female, White Landrace, pig, plasma, iv, 0.2 mg/kg, individual animals, read-out: T1/2 - half-life): 9 to 10 min
Vd ([1]; female, White Landrace, pig, plasma, iv, 0.2 mg/kg, individual animals, read-out: Volume of distribution): 1.3 L/kg
Vd ([1]; female, White Landrace, pig, plasma, iv, 0.2 mg/kg, individual animals, read-out: Volume of distribution at steady state): 1.51 L/kg
AUC ([1]; female, White Landrace, pig, plasma, iv, 0.2 mg/kg, t=0 to 6 hours, individual animals): 27.9 ng·h/mL
Competitive binding (%) at 5 μM of tested compound [2]: 10%
Competitive binding (%) at 5 μM of tested compound [3]: 39%
Competitive binding (%) at 5 μM of tested compound [4]: 7%
Competitive binding (%) at 5 μM of tested compound [5]: 5%
Competitive binding (%) at 5 μM of tested compound ([6]; Dopamine D4.4 receptor, 5 μM): 31%
binding affinity to the D4.4 receptor (in words) ([6]; Table 8): high binding affinity
Competitive binding (%) at 5 μM of tested compound [7]: 3%
Competitive binding (%) at 5 μM of tested compound [8]: 7%
